Source: US8349854B2, “Salts of 4-aniline quinazoline derivative” (priority 2007, dated 2013)
pIC50: −log10 of the molar value. Read-outs that look alike come from different tables or passages of the source.

How the values were obtained:
EGFR tyrosine kinases = EGFR tyrosine kinases (Homo sapiens, UniProt P00533); assay: Inhibitory effect on EGFR tyrosine kinases (ELISA, Poly(Glu,Tyr) 4:1); assay type: biochemical; conditions: result in words
Protocol: The plate coated with EGFR tyrosine kinases reaction substrate Poly(Glu, Tyr) 4:1 was washed three times with T-PBS and dried in oven at the temperature of 37° C. Every well was added with the ATP solution diluted with reaction buffer, the compound to be tested with grading concentrations and the tyrosine kinases to be tested in sequence to initiate the reaction. The plate was incubated in a shaker for 1 hour at the temperature of 37° C., and then was washed three times with T-PBS (the phosphate buffer containing 0.05% of Tween with a pH of 7.4). Antibody PY99 was added and the reaction was kept on at 37° C. for 1 hour. The plate was washed three times with T-PBS, HRP labeled goat anti mouse IgG was then added and incubated at 37° C. for 1 hour. The colorimetric solution of OPD (o-phenylenediamine) was added and the mixture was reacted in dark at room temperature for 1-10 min. The reaction was terminated by the addition of 2M of H2SO4. The OD value at wavelength of 492 nm was measured using the VersaMax™ microplate reader (MDC company, USA). The inhibitory effect of the samples on EGFR tyrosine kinases was determined by the following formula: Inhibition %=[1−(OD Value of the compound to be tested −OD Value of the control without enzyme)/(OD Value of the negative control−OD Value of the control without enzyme)]×100%.

[1] = SD rats, gavage 4 weeks, 20, 50, 100, 500 and 800 mg/(kg·day)
Protocol: Five test groups with the dose of 20, 50, 100, 500 and 800 mg/(kg·day) respectively and a solvent control group were set.

[2] = system: human epidermatoid squamous cancer A431; assay: Anti-tumor effect on human epidermatoid squamous cancer A431 transplanted to the BALB/cA nude rat; assay type: in vivo; conditions: for Weight of animals (without tumor) / inhibition for tumor % / Weight of tumors x ± SD: 13 days; for Weight of tumors x ± SD: 23 days after inoculation
Protocol: A well-developed solid tumor A431 was selected and incised into several bits of an even size of 2-3 mm, with one bit being inoculated subcutaneously to the right armpit of each of the BALB/cA nude rats using trocar. 7 days after inoculation, the rats were grouped randomly and were administrated with the compounds by gavage through mouth for 13 days continuously. The major axis (a) and the minor axis (b) of the tumors were measured with a vernier caliper every 4 days. According to the formula V=ab^2/2, the tumor volume (mm^3) could be calculated. The tested animals were neck-off killed 23 days after the inoculation, and anatomized to obtain the tumors. The tumors were weighed and the inhibitory effect of the compounds to be tested was figured out.

[3] = Drug absorption in SD rat, intravenous injection (iv); assay type: in vivo; conditions: 5 mg/kg
Protocol: (§1) The blood samples were collected 5 min, 15 min, 0.5, 1.5, 2.0, 3.0, 4.0, 5.0, 7.0 hours after administration, which were then centrifugated respectively to obtain the plasma. The concentration of the drug in the plasma was determined by means of liquid chromatography/tandem mass spectrometer, and the concentration-time curve was obtained.

[4] = system: human ovarian cancer SKOV-3; assay: Anti-tumor effect on human ovarian cancer SKOV-3 transplanted to the BALB/cA nude rat; assay type: in vivo
Protocol: A tumor SKOV-3 in vigorous growth period was selected and incised into several bits of an even size of about 1.5 mm^3, which was inoculated subcutaneously to the right armpit of the BALB/cA nude rats using trocar under sterile condition. The diameters of the transplanted tumors were measured with a vernier caliper. The animals were grouped randomly when the tumors reached a size of 80-100 mm^3. The tested animals of the group receiving the compounds to be tested were administrated with the compounds by gavage through mouth once daily for 3 weeks continuously. The positive control drug MMC (Mitomycin) was administered by intravenous injection once on the first day with a dose of 5 mg/kg. The negative control group was administered with 0.5% CMC-Na (Carboxymethyl Cellulose Sodium) with a dose of 0.2 mL/per rat. The major axis (a) and the minor axis (b) of the tumors were measured twice every week and the rats were weighed at the same time. According to the formula V=ab^2/2, the tumor volume (mm^3) could be calculated, based on which the relative tumor volume (RTV) was determined (Formula: RTV=Vt/V0, wherein V0 represents the tumor volume measured at the grouping time (i.e. d0), and Vt represents the tumor volume measured each time). The relative tumor proliferation rate T/C (%) was chosen here to evaluate the anti-tumor activity, which can be calculated according to the following formula: T/C(%)=(TRTV/CRTV)×100%
TRTV: RTV of the group receiving the compounds to be tested; CRTV: RTV of negative control group

[5] = Drug absorption in SD rat, intragastric administration (ig); assay type: in vivo
Protocol: as §1, with “collected” for “collected 5 min, 15 min,”, “0.5, 1.0,” for “0.5,”, “3.0,” for “3.0, 4.0,”, “7.0, 9.0, 12 and 24” for “7.0”

[6] = system: human breast cancer cell BT-474; assay: Inhibition of proliferation of tumor cell lines (MTT), BT-474; assay type: cell-based; conditions: BT-474, MTT, 72 h
Protocol: (§2) A DMSO solvent control well and a blank well were set in the plate. […] The incubation was continued for 4 h, and 50 μL of triple-expansion solution (10% SDS-5% of isobutyl alcohol-0.01 mol/L of HCl) was added. The plate was placed in the incubator overnight. The OD value was measured by the microplate reader at wavelength of 570 nm.

[7] = system: human epidermatoid squamous cancer cell A431; assay: Inhibition of proliferation of tumor cell lines (MTT), A431; assay type: cell-based; conditions: 72 h
Protocol: as §2

[8] = Solubility test in water and in methanol at room temperature; assay type: physicochemical; conditions: thermodynamic from solid
Protocol: According to the conventional method for determining the solubility, at the room temperature, a suitable amount of the compound to be tested was placed in 15 mL of water. Then the compound was dissolved by sufficient stir. The solution is placed at room temperature for 3 hours. Then 10 ml of the clear saturated supernatant was transferred into the weighing bottle with the pipette. The solvent was evaporated by heating, and the residue was dried and weighed to obtain the mass of the residue, which was the mass of the solute. After calculation, the solubility of the compound of formula (I) and the salts thereof in water can be obtained. The solubility of the compound to be tested in methanol was determined along the same lines.

[9] = system: human mammary cancer cells BT-474; conditions: from PCT/CN2006/002786, result in words; cited from earlier work
Erb-B2 = Erb-B2 (Homo sapiens, UniProt P04626); conditions: in vitro; from PCT/CN2006/002786, result in words; cited from earlier work
[10] = system: human epidermoid squamous cancer cells A431; conditions: from PCT/CN2006/002786, result in words; cited from earlier work
[11] = system: human epidermoid squamous cancer cells A431; conditions: from PCT/CN2006/002786, result in words; cited from earlier work; remark: listed apart in the source
[12] = 50 mg/kg ig once daily for 3 weeks
[13] = 100 mg/kg ig once daily for 3 weeks
[14] = 200 mg/kg ig once daily for 3 weeks
[15] = SD rat, ig, dosage 21.68 (formula (I)), 23.42 (hydrochloride), 30 mg/kg (p-toluenesulfonate)
[16] = SD rat, revised by dosage, calculated by AUC0-t
[17] = 5 mg/kg iv once on the first day, after 3 weeks

Sequence of Erb-B2 (P04626 23-1255, species assumed): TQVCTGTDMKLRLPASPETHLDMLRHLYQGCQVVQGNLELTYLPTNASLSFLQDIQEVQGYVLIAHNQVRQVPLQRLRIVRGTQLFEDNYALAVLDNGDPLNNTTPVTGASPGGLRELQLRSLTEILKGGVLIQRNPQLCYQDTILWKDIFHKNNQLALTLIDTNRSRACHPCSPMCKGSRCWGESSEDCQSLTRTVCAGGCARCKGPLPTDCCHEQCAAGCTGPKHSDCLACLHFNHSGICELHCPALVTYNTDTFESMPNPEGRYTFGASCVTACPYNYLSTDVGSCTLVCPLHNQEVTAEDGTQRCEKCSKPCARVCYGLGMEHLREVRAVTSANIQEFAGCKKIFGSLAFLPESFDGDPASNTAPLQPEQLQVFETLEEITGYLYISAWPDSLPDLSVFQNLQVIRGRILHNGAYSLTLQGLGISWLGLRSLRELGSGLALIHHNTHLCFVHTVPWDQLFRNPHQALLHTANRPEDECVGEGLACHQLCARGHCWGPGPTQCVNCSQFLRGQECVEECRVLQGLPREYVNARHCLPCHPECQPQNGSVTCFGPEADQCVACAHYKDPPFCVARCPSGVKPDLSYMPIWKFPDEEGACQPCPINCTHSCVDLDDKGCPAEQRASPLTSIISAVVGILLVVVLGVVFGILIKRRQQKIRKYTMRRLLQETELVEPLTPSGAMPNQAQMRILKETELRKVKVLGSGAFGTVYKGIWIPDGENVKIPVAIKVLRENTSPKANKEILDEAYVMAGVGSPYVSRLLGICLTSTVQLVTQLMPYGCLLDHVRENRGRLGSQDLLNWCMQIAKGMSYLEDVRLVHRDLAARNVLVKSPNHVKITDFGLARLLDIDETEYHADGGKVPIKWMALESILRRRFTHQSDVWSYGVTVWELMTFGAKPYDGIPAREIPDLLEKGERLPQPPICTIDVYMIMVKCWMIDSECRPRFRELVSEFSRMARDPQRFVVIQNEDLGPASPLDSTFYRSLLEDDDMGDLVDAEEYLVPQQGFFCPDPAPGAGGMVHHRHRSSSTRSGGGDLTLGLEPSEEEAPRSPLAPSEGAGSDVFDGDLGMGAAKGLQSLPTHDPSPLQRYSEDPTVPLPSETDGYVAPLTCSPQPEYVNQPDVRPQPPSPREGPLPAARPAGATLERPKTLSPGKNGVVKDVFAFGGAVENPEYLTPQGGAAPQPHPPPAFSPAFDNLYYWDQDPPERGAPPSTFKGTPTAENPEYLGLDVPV

C=CC(=O)Nc1ccc2ncnc(Nc3ccc(OCc4cccc(F)c4)c(Cl)c3)c2c1.O=C(O)C(=O)O [Oxalate, Oxalate of N-{4-[3-chloro-4-(3-fluoro-benzyloxy)phenylamino]-quinazolin-6-yl}-acrylamide]
inhibitory activity of EGFR tyrosine kinases (EGFR tyrosine kinases): excellent inhibitory activity
food intake [1]: normal food intake
physical signs, appearance, behaviors, activities or shape of dejecta [1]: no abnormality

C=CC(=O)Nc1ccc2ncnc(Nc3ccc(OCc4cccc(F)c4)c(Cl)c3)c2c1.CS(=O)(=O)O [Methanesulfonate, Methanesulfonate of N-{4-[3-chloro-4-(3-fluoro-benzyloxy)phenylamino]-quinazolin-6-yl}-acrylamide]
inhibitory activity of EGFR tyrosine kinases (EGFR tyrosine kinases): excellent inhibitory activity
food intake [1]: normal food intake
physical signs, appearance, behaviors, activities or shape of dejecta [1]: no abnormality

C=CC(=O)Nc1ccc2ncnc(Nc3ccc(OCc4cccc(F)c4)c(Cl)c3)c2c1.Cc1ccc(S(=O)(=O)O)cc1 [p-Toluenesulfonate, p-Toluenesulfonate of N-{4-[3-chloro-4-(3-fluoro-benzyloxy)phenylamino]quinazolin-6-yl}-acrylamide]
Weight of animals (without tumor) ([2]; 25 mg/kg ig): 21.58 ± 2.18 g
inhibition for tumor % ([2]; 25 mg/kg ig): 29.99%
Weight of tumors x ± SD ([2]; 25 mg/kg ig): 0.79 ± 0.20 g
Weight of animals (without tumor) ([2]; 50 mg/kg ig): 22.05 ± 1.59 g
inhibition for tumor % ([2]; 50 mg/kg ig): 37.15%
Weight of tumors x ± SD ([2]; 50 mg/kg ig): 0.71 ± 0.20 g
Weight of animals (without tumor) ([2]; 100 mg/kg ig): 22.35 ± 1.92 g
inhibition for tumor % ([2]; 100 mg/kg ig): 48.65%
Weight of tumors x ± SD ([2]; 100 mg/kg ig): 0.58 ± 0.21 g
inhibitory effect on the tumors (A431 xenograft) ([2]; result in words): significant inhibitory effect
AUC0-t [3]: 1860 ng·h/mL
Cmax [3]: 1745 ng/mL
T1/2 [3]: 1.55 h
Tmax [3]: 4.98 min
RTV [4, 12]: 5.1 ± 1.7
T/C [4, 12]: 53.0%
Volume of tumor V21 [4, 12]: 421 ± 89 mm^3
RTV [4, 13]: 4.3 ± 1.3
T/C [4, 13]: 45.0%
Volume of tumor V21 [4, 13]: 345 ± 88 mm^3
RTV [4, 14]: 3.5 ± 0.8
T/C [4, 14]: 36.9%
Volume of tumor V21 [4, 14]: 303 ± 72 mm^3
tumor inhibitory effect (SKOV-3 xenograft) ([4]; result in words): conspicuous tumor inhibitory effect
AUC0-t [5, 15]: 1235 ng·h/mL
Cmax [5, 15]: 333 ng/mL
T1/2 [5, 15]: 1.22 h
Tmax [5, 15]: 3.38 h
absolute bioavailability by ig [5, 16]: 11.07%
inhibitory activity of EGFR tyrosine kinases (EGFR tyrosine kinases): excellent inhibitory activity
pIC50 [6]: 6.38
food intake [1]: normal food intake
physical signs, appearance, behaviors, activities or shape of dejecta [1]: no abnormality
pIC50 [7]: 6.14

C=CC(=O)Nc1ccc2ncnc(Nc3ccc(OCc4cccc(F)c4)c(Cl)c3)c2c1.Cl [Hydrochloride, The hydrochloride of N-{4-[3-chloro-4-(3-fluoro-benzyloxy)phenyl-amino]-quinazolin-6-yl}-acrylamide]
AUC0-t [5, 15]: 1038 ng·h/mL
Cmax [5, 15]: 289 ng/mL
T1/2 [5, 15]: 1.27 h
Tmax [5, 15]: 2.25 h
absolute bioavailability by ig [5, 16]: 9.30%
inhibitory activity of EGFR tyrosine kinases (EGFR tyrosine kinases): excellent inhibitory activity
pIC50 ([6]; listed as hydrochloride): 6.34
food intake [1]: normal food intake
physical signs, appearance, behaviors, activities or shape of dejecta [1]: no abnormality
pIC50 ([7]; listed as hydrochloride): 6.08

C=CC(=O)Nc1ccc2ncnc(Nc3ccc(OCc4cccc(F)c4)c(Cl)c3)c2c1 [Compound of formula (I), N-{4-[3-chloro-4-(3-fluoro-benzyloxy)phenylamino]quinazolin-6-yl}-acrylamide]
solubility at 3 h ([8]; organic solvent or mixture, methanol, read-out: Solubility in methanol(/mL)): < 1000 µg/mL
solubility at 3 h ([8]; water, read-out: Solubility in water(/mL)): < 0.01 µg/mL
inhibitory activity of human mammary cancer cells BT-474 [9]: relatively good inhibitory activity
half-life ([5]; male, SD, rat, plasma, po, 30 mg/kg): 1.81 h
AUC0-t ([5]; male, SD, rat, plasma, po, 30 mg/kg, read-out: AUC0-t): 106 ng·h/mL
Cmax ([5]; male, SD, rat, plasma, po, 30 mg/kg, read-out: Cmax): 32 ng/mL
Tmax ([5]; male, SD, rat, plasma, po, 30 mg/kg, read-out: Tmax): 0.75 h
bioavailability ([5]; male, plasma, po, 21.68 mg/kg, SD rat, revised by dosage, calculated by AUC0-t, read-out: absolute bioavailability by ig): 0.95%
inhibitory activity against Erb-B2 (Erb-B2): excellent inhibitory activity
anti-tumor effect on A431 transplanted to a nude rat [10]: conspicuous anti-tumor effect
inhibitory activity of human epidermoid squamous cancer cells A431 [11]: relatively good inhibitory activity

CO[C@@]12[C@H](COC(N)=O)C3=C(C(=O)C(C)=C(N)C3=O)N1C[C@@H]1N[C@@H]12 [MMC, Mitomycin, reference compound]
RTV [4, 17]: 3.1 ± 0.5
T/C [4, 17]: 32.0%
Volume of tumor V21 [4, 17]: 258 ± 77 mm^3

Tartrate of N-{4-[3-chloro-4-(3-fluoro-benzyloxy)phenylamino]-quinazolin-6-yl}-acrylamide
inhibitory activity of EGFR tyrosine kinases (EGFR tyrosine kinases): excellent inhibitory activity
food intake [1]: normal food intake
physical signs, appearance, behaviors, activities or shape of dejecta [1]: no abnormality
weight and weight growth of the rats [1]: basically similar to the control group with no statistical difference
